The source made the active and inactive calls.
Columns and labels:
[1] = target: Cytochrome P450 2C9 (Homo sapiens, UniProt P11712)
[2] = target: Cytochrome P450 3A4 (Homo sapiens, UniProt P08684);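 note: CYP3A4 tested as one member of a cytochrome P450 panel screen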
[3] = target: Cytochrome P450 2D6 (Homo sapiens, UniProt P10635);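 note: CYP2D6 member of a cytochrome P450 panel assay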
[4] = Luminescence Cell-Based Dose Retest to Confirm Inhibitors of Cancer Stem Cells. [Related pubchem assays (depositor defined):AID2717, AID2721]; type: functional; details: Homo sapiens
[5] = system: Streptococcus sp. 'group A'; test: Streptococcus pyogenes SK(-)GAS viability under kanamycin – luminescence, BacTiterGlo, confirmation, counter-screen for streptokinase expression inhibitor project, dose response (AID 1900); type: functional, organism-based
[6] = target: T1, Streptokinase A (Streptococcus pyogenes serotype M1, UniProt P10520); test: viability-normalized secreted streptokinase activity reduction – plasminogen activation absorbance, OD405, dose response (AID 1914); type: functional, Streptococcus pyogenes M1 GAS;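 note: secreted streptokinase activity via plasminogen activation per viability signal from cell pellet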
T1 sequence (P10520 whole entry): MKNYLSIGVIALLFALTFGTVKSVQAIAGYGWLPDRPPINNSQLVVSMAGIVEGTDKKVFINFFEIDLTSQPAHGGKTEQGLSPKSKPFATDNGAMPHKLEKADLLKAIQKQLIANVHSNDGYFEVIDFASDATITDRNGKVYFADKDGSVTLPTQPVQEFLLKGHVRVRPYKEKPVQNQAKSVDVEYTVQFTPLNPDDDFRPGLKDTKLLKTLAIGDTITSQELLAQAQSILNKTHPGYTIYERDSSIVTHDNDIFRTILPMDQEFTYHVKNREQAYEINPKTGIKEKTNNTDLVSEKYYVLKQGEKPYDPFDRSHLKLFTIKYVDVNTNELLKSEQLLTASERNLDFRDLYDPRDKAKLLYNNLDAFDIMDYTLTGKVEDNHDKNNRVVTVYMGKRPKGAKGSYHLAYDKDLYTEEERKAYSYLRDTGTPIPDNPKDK

[7] = system: Streptococcus; test: GAS UMAA2166 growth inhibition – luminescence, BacTiterGlo, counter-screen for streptokinase expression inhibitor project, dose response (AID 1915); type: functional, organism-based;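 note: potency for reduction of bacterial viability or growth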
[8] = target: T2, Heat shock factor protein 1 (Mus musculus, UniProt P38532); test: decrease of HSF1-responsive luciferase luminescence – cell-based, NIH3T3, dose retest, confirmation (AID 2382); type: functional;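 note: NIH3T3 fibroblasts with HSF1-driven luciferase reporter stressed by proteasome inhibitor MG132; luminescence from HSF1-driven luciferase expression after 8 hours of MG132 stress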
T2 sequence (P38532 whole entry): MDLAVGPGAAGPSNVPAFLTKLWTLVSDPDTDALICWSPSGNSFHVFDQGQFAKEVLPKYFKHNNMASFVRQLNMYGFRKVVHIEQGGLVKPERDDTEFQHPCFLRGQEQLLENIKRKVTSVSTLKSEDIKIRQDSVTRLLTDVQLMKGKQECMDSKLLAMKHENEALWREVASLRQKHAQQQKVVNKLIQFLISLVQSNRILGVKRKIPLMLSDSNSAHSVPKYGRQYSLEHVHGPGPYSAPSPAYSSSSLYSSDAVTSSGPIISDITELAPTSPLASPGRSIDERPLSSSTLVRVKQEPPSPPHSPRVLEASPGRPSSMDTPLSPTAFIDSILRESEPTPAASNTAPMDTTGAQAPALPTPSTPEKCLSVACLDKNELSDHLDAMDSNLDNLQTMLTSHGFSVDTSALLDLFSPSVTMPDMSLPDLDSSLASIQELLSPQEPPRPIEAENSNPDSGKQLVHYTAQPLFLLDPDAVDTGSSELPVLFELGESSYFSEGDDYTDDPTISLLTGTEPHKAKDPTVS

[9] = target: T2, Heat shock factor protein 1; test: enhancement of HSF1-driven luciferase signal – cell-based, NIH3T3, luminescence, dose retest, confirmation (AID 435004); type: functional;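 note: stress induced by proteasome inhibitor MG132 added 30 min after compound; luciferase reporter driven by HSF1 response element in NIH3T3 cells; actives raise luminescence as potentiators of the MG132 stress response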
[10] = target: Cytochrome P450 2C19 (Homo sapiens, UniProt P33261); test: Cytochrome panel assay with activity outcomes. Panel member name: p450-cyp2c19 Compounds with AC50 equal or less than 10 uM are considered active; type: functional; details: read-out: AC50
Chain of Cytochrome P450 2C19 (P33261 whole entry): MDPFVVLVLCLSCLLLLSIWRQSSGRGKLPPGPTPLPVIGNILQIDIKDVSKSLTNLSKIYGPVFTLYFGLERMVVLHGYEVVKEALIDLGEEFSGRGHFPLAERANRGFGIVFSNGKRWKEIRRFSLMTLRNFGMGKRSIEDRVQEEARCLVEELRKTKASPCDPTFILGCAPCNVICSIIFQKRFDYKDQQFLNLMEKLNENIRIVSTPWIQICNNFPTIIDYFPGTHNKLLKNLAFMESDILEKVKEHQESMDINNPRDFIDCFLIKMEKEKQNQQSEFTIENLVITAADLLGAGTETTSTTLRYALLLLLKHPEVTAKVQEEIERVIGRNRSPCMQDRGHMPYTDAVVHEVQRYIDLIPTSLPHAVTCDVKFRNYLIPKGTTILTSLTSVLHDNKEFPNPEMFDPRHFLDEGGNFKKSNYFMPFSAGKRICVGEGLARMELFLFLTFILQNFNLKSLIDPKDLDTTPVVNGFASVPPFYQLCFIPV

[11] = viability of uninfected HEp-2 cells – cell-based, HTS, cytotoxicity control for RSV inhibitor project, dose response (AID 2410); type: functional; details: human respiratory syncytial virus
[12] = NIH3T3 cell viability loss – ATP luminescence, mouse fibroblasts, counter-screen, dose response (AID 2010); type: functional, cell-based;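 note: cells exposed to compound for about 90 hours before reading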
[13] = Trypanosoma cruzi growth suppression in host cells – NIH3T3 host cells, beta-gal luminescence, confirmation (AID 2044); type: functional, cell-based;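 note: intracellular parasites grown in NIH/3T3 mouse fibroblasts as host cells; luminescent beta-galactosidase reporter signal from transgenic T. cruzi replicating inside host cells; inhibitors lower the luminescence signal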
[14] = target: T3, Cytochrome P450 1A2 (Homo sapiens, UniProt P05177);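 note: PubChem cytochrome P450 panel assay, CYP1A2 panel member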
T3 sequence (P05177 whole entry): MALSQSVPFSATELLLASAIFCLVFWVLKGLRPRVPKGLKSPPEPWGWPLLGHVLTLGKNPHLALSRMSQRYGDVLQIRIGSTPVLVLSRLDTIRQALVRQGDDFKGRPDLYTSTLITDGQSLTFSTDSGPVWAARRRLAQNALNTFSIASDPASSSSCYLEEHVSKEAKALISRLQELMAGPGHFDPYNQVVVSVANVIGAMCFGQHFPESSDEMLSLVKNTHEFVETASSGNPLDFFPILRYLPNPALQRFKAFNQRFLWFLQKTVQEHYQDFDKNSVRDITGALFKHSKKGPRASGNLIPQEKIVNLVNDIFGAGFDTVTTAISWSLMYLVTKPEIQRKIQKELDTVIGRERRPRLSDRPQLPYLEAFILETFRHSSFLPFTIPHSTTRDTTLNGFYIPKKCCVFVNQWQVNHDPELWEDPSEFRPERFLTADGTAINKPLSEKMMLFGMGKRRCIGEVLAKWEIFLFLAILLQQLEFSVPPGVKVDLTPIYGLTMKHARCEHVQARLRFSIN

Chain of Cytochrome P450 3A4 (P08684 whole entry): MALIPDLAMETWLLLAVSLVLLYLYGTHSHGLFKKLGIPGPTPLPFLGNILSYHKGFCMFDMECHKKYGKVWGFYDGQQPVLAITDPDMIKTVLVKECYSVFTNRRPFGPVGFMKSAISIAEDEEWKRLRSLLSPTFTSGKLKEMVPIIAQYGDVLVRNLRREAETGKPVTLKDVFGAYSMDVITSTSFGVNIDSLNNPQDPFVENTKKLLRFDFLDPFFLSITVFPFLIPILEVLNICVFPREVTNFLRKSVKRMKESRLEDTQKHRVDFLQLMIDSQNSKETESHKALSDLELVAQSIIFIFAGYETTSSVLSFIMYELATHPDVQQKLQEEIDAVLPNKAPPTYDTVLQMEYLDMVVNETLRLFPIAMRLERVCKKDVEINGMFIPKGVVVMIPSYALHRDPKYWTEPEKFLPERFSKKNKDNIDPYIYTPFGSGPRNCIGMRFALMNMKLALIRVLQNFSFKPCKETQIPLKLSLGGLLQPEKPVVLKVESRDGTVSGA
Chain of Cytochrome P450 2C9 (P11712 whole entry): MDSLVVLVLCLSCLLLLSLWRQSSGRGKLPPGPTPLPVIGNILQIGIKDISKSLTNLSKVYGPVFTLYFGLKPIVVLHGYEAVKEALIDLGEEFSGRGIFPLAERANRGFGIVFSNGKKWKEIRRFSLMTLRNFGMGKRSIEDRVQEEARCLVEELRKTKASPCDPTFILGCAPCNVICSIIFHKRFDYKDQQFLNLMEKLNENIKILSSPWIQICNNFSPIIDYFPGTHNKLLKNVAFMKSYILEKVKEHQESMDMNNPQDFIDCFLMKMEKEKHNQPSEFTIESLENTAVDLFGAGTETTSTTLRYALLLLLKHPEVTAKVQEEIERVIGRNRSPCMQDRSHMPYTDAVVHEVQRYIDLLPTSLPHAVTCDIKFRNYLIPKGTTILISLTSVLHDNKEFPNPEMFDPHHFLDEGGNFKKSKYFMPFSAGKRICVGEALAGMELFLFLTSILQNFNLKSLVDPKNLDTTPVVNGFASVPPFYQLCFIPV
Chain of Cytochrome P450 2D6 (P10635 whole entry): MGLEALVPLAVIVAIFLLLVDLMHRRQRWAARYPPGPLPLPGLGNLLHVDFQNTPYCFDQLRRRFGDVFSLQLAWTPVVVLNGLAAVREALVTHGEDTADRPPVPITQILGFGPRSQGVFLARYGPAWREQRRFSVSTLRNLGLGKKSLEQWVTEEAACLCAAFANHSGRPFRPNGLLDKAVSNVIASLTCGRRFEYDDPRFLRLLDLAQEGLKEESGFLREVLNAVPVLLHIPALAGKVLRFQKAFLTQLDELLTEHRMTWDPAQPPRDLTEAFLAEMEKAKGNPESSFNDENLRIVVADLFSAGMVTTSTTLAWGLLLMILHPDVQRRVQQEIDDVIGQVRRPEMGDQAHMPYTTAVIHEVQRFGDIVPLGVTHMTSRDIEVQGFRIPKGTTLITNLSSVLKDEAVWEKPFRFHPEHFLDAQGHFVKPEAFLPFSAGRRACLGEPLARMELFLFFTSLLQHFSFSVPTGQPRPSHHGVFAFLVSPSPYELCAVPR

## O=C(O)C[S+]([O-])c1ccc2c3c(cccc13)C(=O)c1ccccc1-2 (stereo not given)
[1]
  AC50: 6.31 µM (inconclusive)
[2]
  AC50: 3.98 µM (inconclusive)

## O=c1cnc2cnc(N3CCNCC3)nc2n1CCc1ccccc1
[1]
  AC50: 20 µM (inconclusive)
[3]
  AC50: 15.8 µM (inconclusive)
[2]
  AC50: 15.8 µM (inconclusive)

## CCN1C(=O)/C(=C\N2CCN(c3cccc(Cl)c3)CC2)SC1=S
[4]
  AC50: 1.77 µM (active)

## COc1cccc(-n2nnc3c(=O)n(Cc4ccccc4Cl)cnc32)c1
[5]
  EC50: > 150 µM (not active)
[6]
  EC50: > 150 µM (not active)
[7]
  EC50: > 150 µM (not active)
[8]
  EC50: > 195 µM (not active)

## Oc1ccc(Br)cc1-c1cc(-c2ccccc2)[nH]n1
[4]
  AC50: 4.95 µM (active)

## O=C(Cc1csc(NC(=O)Nc2cccc(Cl)c2)n1)NCc1cccnc1
[5]
  EC50: 3.19 µM (active)
[6]
  EC50: > 150 µM (not active)
[7]
  EC50: 13.7 µM (active)

## CCOC(=O)Nc1ccc2c(c1)OCO2
[1]
  AC50: 39.8 µM (inconclusive)
[3]
  AC50: 35.5 µM (inconclusive)

## Cc1cc(C)c2c(NC(=O)C3CC3)nn(C)c2n1
[9]
  EC50: > 260 µM (inactive)

## O=C(Nc1ccccc1)C1=C[C@@H](c2csc3ccccc23)C[C@@H](OCc2ccc(CO)cc2)O1
[4]
  AC50: 2.65 µM (active)

## O=C(CSc1nc(N2CCOCC2)nc(N2CCOCC2)n1)Nc1cccc(C(F)(F)F)c1
[5]
  EC50: > 150 µM (not active)
[6]
  EC50: > 150 µM (not active)
[7]
  EC50: > 150 µM (not active)

## Cn1c(=O)c(/C=C/c2ccc(F)cc2)nc2ccccc21
[9]
  EC50: 36.5 µM (active)

## CC1CCCC(N=C(S)Nc2ccc(SC(F)F)cc2)C1C (stereo not given)
[4]
  AC50: 5.61 µM (active)

## CCOC(=O)C1CCN(c2c(NCc3ccc(C(=O)NCCC(C)C)cc3)c(=O)c2=O)CC1
[1]
  AC50: 7.94 µM (inconclusive)
[3]
  AC50: 0.398 µM (inconclusive)
[2]
  AC50: 7.94 µM (inconclusive)

## CCCC(C)c1nnc(NC(=O)COc2ccc3c(c2)OCO3)s1 (stereo not given)
[4]
  AC50: 5.69 µM (active)

## CCC(C(=O)N1CCC(N2CCCCC2)CC1)n1nc(C)c2sc3ccccc3c2c1=O (stereo not given)
[5]
  EC50: > 150 µM (not active)
[6]
  EC50: > 150 µM (not active)
[7]
  EC50: > 150 µM (not active)

## COc1ccccc1NC(=O)c1ccc(S(=O)(=O)N2CCCC(C)C2)cc1 (stereo not given)
[4]
  AC50: > 195 µM (inactive)

## CCCCCCNC(=O)CN=C(S)N(Cc1cccs1)C1CCCCC1
[9]
  EC50: > 260 µM (inactive)

## O=C(Cn1nnc2ccccc21)N1CCCCC1
[1]
  AC50: 0.00562 µM (inconclusive)
[10]
  AC50: 22.4 µM (inconclusive)

## CC1(C)OC(C(O)(c2ccccc2)c2ccccc2)[C@@H](C(O)(c2ccccc2)c2ccccc2)O1 (stereo not given in full)
[5]
  EC50: 2.95 µM (active)
[6]
  EC50: 2.78 µM (active)
[7]
  EC50: > 150 µM (not active)

## O=C(c1ccncc1)N1CCC2(CC1)CN(c1ccncc1)C2
[1]
  AC50: 31.6 µM (inconclusive)

## Oc1ccc2ccccc2c1CN1CCN(c2ccccc2)CC1
[9]
  EC50: 49.8 µM (active)

## Cc1ccc2nc(Nc3nc(=O)cc(-c4ccccc4)[nH]3)nc(C)c2c1
[6]
  EC50: > 150 µM (not active)

## Cc1ccc2nc(Nc3nc(O)cc(-c4ccccc4)n3)nc(C)c2c1
[5]
  EC50: 2.94 µM (active)
[7]
  EC50: 6.98 µM (active)

## CC(=O)c1cccc(N(CC(=O)Nc2ccc(F)cc2F)S(C)(=O)=O)c1
[9]
  EC50: 176 µM (active)

## Cc1ccc2[nH]c(-c3ccc(NC(=O)Cc4cccs4)cc3)nc2c1
[1]
  AC50: 0.708 µM (inconclusive)
[10]
  AC50: 1 µM (inconclusive)

## COc1cccc(-c2ccc(C#N)c(OC(=O)c3c(Cl)cccc3Cl)n2)c1
[4]
  AC50: 3.52 µM (active)
[11]
  CC50: 28.1 µM (active)

## COCCn1c(=O)c(-c2ccc(OC)cc2)nc2cnc(OC)nc21
[1]
  AC50: 39.8 µM (inconclusive)
[10]
  AC50: 39.8 µM (inconclusive)
[3]
  AC50: 25.1 µM (inconclusive)

## Cc1ccc(-c2[nH]ncc2C(=O)c2ccc(Br)cc2)c(O)c1
[9]
  EC50: > 260 µM (inactive)

## Cc1nn(C)c(C(=O)Nc2ccc(S(=O)(=O)NC34CC5CC(CC(C5)C3)C4)cc2)c1Br
[5]
  EC50: 8.5 µM (active)
[6]
  EC50: 16.8 µM (active)
[7]
  EC50: 16.5 µM (active)
[12]
  EC50: > 60 µM (inconclusive)
[13]
  EC50: 2.79 µM (active)

## COc1ccc(CNc2nc(-c3c(C)noc3C)nc3ccccc23)c(OC)c1
[1]
  AC50: 1 µM (inconclusive)

## CCOC(=O)CC1C(=O)NCCN1S(=O)(=O)c1cc(Cl)c(Cl)cc1Cl (stereo not given)
[9]
  EC50: > 260 µM (inactive)

## Brc1ccccc1-n1nnc(-c2cnc3ccccc3c2)n1
[9]
  EC50: > 260 µM (inactive)

## Cc1ccc(C(=O)CSc2nc(C)cc(=O)[nH]2)cc1
[1]
  AC50: 0.0282 µM (inconclusive)
[10]
  AC50: 39.8 µM (inconclusive)
[14]
  AC50: 31.6 µM (inconclusive)

## COc1cc(/C=N/Nc2ncnc3sc4c(c23)CCC4)ccc1O
[5]
  EC50: 3.88 µM (active)
[6]
  EC50: 5.06 µM (active)
[7]
  EC50: > 150 µM (not active)

## COc1ccc(/C=N/N(c2ccccc2)c2ccccc2)cc1O
[4]
  AC50: 6.76 µM (active)

## C/C(=N\NC(=O)c1nnn(-c2nonc2N)c1CN1CCCCC1)c1ccccc1O
[4]
  AC50: 3.42 µM (active)

## CC(C)(C)NC(=O)C(=O)N/N=C/c1ccc(Br)cc1
[1]
  AC50: 15.8 µM (inconclusive)
[14]
  AC50: 15.8 µM (inconclusive)

## Cc1ccc(/C=c2\s/c(=C(/C#N)C(=O)N3CCCC3)n(Cc3ccco3)c2=O)s1
[9]
  EC50: 9.99 µM (active)

## C=CCn1c(O)cc(=O)nc1SC(C)CC (stereo not given)
[5]
  EC50: 21.3 µM (active)
[6]
  EC50: > 150 µM (not active)
[7]
  EC50: > 150 µM (not active)

## CN(C)CCCn1cc(C2=C(c3c[nH]c4ccccc34)C(=O)NC2=O)c2ccccc21 [GF-109203]
[1]
  AC50: 15.8 µM (inconclusive)

## CC(=O)NCCc1c(Cc2ccccc2)[nH]c2ccccc12 [LUZINDOLE]
[1]
  AC50: 15.8 µM (inconclusive)

Reference: ChEMBL document CHEMBL1201862, “PubChem BioAssay data set” (2004)
